# Earlier results as cited in patent US11022607B2, “Compound-carrier systems for assays in nematodes” (Assistance Publique—Hôpitaux de Paris, priority 2013, dated 2021).
# Tested on: C. elegans
# Settings: 25 ml of liposomes containing 50 mg of uranin; in 3 h
smiles,measurement,value
O=C([O-])c1ccccc1-c1c2ccc(=O)cc-2oc2cc([O-])ccc12.[Na+].[Na+] [uranin],"amount of fluorescent dye absorption, compared with worms administered dye by conventional methods",100 fold
